This note sets out measurements from patent publication US20260035452A1 (THE UNIVERSITY OF BIRMINGHAM, priority 2022, published 2026).

No end group written: not given here.

The subject of test [1] is hPBMC on cytokine-stimulated HDBEC monolayers. Nature of the test: Human PBMC static adhesion / transendothelial migration assay. It counts as cell-based. To be noted: co-treatment plus TNF-α. The procedure: FIG. 10: Human dermal blood endothelial cells (HDBEC) were treated with: IL-17 vehicle (Ctrl), IL-17 or FM-0410 (100 ng/ml), alone or in combination with TNF-α (100 U/ml) for 24 h. Cells were washed, gated in their totality and singlet before the identification of IL-17Rs (RA and RC) (A, B), ICAM (C) and VCAM (D) expression. Histogram values (expressed as MIF) indicate the total positive cells (A-D). In (E) are shown phase-contrast micrographs of confluent monolayers of untreated or treated (as reported before) HDBEC. Total adhesion (expressed as INT/mm^2, F) and % of transmigration (G) are calculated with Image Pro programme (DataCell, Finchampstead). Inflammatory supernatants from all experimental conditions were assayed by Elisa for IL-6 (H) expressed in pg/ml. Data were presented as means±S.D. of n=3 healthy donors. […]
Human PBMC transendothelial migration assay: Prior to beginning the assay, HDBEC monolayers were washed with 37° C. medium 199 (Thermo Fisher Scientific) supplemented with 0.15% w/v BSA (MilliporeSigma) to remove any residual cytokines. hPBMC (1×10^6) were co-cultured with cytokine-stimulated HDBEC monolayers at 37° C. for 20 min. […] Total hPBMC adhesion and mean percentage transmigration were calculated for each well.

The next test deals with neutrophils. Kind of test: Transwell chemotaxis assay. Format: cell-based, human. On the procedure:
The cells migration after IL-17 (10-500 ng/ml), FM-0410 (10-500 ng/ml) or N-Formylmethionine-leucyl-phenylalanine (fmlp; 10^−6 M) treatment was quantified using CountBright™ Absolute Counting Beads. Data were presented as means±S.D. of n=3 healthy donors. Statistical analysis was conducted by one-way ANOVA followed by Bonferroni's for multiple comparisons. ^#P≤0.05, ^##P≤0.01, ^###P≤0.001, ^####P≤0.0001 vs Ctrl group; ^+P≤0.05 vs IL-17. Neutrophil isolation: Blood was taken according to local research ethics committee approval (QMERC2014/61). Informed consent was provided according to the Declaration of Helsinki. All blood samples were collected on the day of experiments from healthy donors and immediately used. Each condition has 3 biological replicates (3 different donors). Neutrophils were isolated using a double density histopaque gradient and hypotonic lysis as described previously. Transwell chemotaxis assay: Chemotaxis was assessed using a transwell assay. […] After 2 hours at 37° C., neutrophils were collected from the bottom wells and quantified by flow cytometry using CountBright™ Absolute Counting Beads (Thermofisher, Rugby, UK) as previously described.

Take Ac-LEKILVSVGATAVTPIVHHVAC [FM-0410]: in test [1], the “total number of adhered hPBMC” value is given as “significant increase” and the “transmigrated hPBMC” value is listed as “significant increase”. The “chemotactic activity compared to positive control fmlp (10^−6 M)” value in the test on neutrophils (500 ng/ml) is on record as “almost similar to positive control fmlp”. Further, the “chemotactic effect on neutrophils” value in the test with neutrophils (10-500 ng/ml, vs Control group) is “concentration-dependent chemotactic effect”.
